# In patent US10065971B2 (priority 2014, dated 2018):
# Molecular target: human σ1 receptor (Homo sapiens, UniProt Q99720)
# Experiment: biochemical
# Set-up: μ and σ1 dual binding: scale not given here
# Settings: combined class from Ki at human σ1 receptor (A1) and Ki at human μ-opioid receptor (A2), radioligand binding; for Ki: read-out: μ and σ1 dual binding
# Protocol: Biological Activity Pharmacological Study Human σ1 Receptor Radioligand Assay
# The assay was carried out with 7 μg of membrane suspension, 5 nM of [^3H](+)-pentazocine in either absence or presence of either buffer or 10 μM Haloperidol for total and non-specific binding, respectively. Binding buffer contained Tris-HCl 50 mM at pH 8. Plates were incubated at 37° C. for 120 minutes. After the incubation period, the reaction mix was then transferred to MultiScreen HTS, FC plates (Millipore), filtered and plates were washed 3 times with ice-cold 10 mM Tris-HCL (pH7.4). Filters were dried and counted at approximately 40% efficiency in a MicroBeta scintillation counter (Perkin-Elmer) using EcoScint liquid scintillation cocktail
# Chain of human σ1 receptor (Q99720 whole entry): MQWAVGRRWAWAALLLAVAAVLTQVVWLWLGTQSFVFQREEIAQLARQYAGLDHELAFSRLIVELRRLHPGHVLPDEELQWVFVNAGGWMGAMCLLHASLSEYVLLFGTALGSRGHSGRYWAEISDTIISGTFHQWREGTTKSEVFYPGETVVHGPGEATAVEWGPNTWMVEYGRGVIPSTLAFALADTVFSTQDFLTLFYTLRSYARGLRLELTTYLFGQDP
Ki [nM],Structure (SMILES),μ and σ1 dual binding
–,"CC1CN(C(=O)c2ccc(Cl)cn2)CC2(CCN(CCc3csc(N)n3)CC2)O1.Cl (stereo not shown) [Example 102, (9-(2-(2-aminothiazol-4-yl)ethyl)-2-methyl-1-oxa-4,9-diazaspiro[5.5]undecan-4-yl)(5-chloropyridin-2-yl)methanone hydrochloride]",++
–,"CC1CN(C(=O)c2ccccc2)CC2(CCN(CCc3csc(N)n3)CC2)O1.Cl (stereo not shown) [Example 103, (9-(2-(2-aminothiazol-4-yl)ethyl)-2-methyl-1-oxa-4,9-diazaspiro[5.5]undecan-4-yl)(phenyl)methanone]",++
> 500,"Nc1cccc(CCN2CCC3(CC2)CN(C(=O)c2ccccc2)CCO3)c1 [Example 104, (9-(3-aminophenethyl)-1-oxa-4,9-diazaspiro[5.5]undecan-4-yl)(phenyl)methanone]",–
–,"CC1CN(C(=O)c2ccccc2)CC2(CCN(CCc3cccc(NC(N)=O)c3)CC2)O1.Cl (stereo not shown) [Example 109, 1-(3-(2-(4-benzoyl-2-methyl-1-oxa-4,9-diazaspiro[5.5]undecan-9-yl)ethyl)phenyl)urea hydrochloride]",++
–,"CC1CN(C(=O)c2ccccc2)CC2(CCN(CCc3ccccc3NC(N)=O)CC2)O1 (stereo not shown) [Example 110, 1-(2-(2-(4-benzoyl-2-methyl-1-oxa-4,9-diazaspiro[5.5]undecan-9-yl)ethyl)phenyl)urea]",++
–,"CC(=O)Nc1cccc(CCN2CCC3(CC2)CN(C(=O)c2ccccc2)CCO3)c1 [Example 111, N-(3-(2-(4-benzoyl-1-oxa-4,9-diazaspiro[5.5]undecan-9-yl)ethyl)phenyl)acetamide]",++
–,"CC(=O)Nc1ccccc1CCN1CCC2(CC1)CN(C(=O)c1ccccc1)CC(C)O2.Cl (stereo not shown) [Example 112, N-(2-(2-(4-benzoyl-2-methyl-1-oxa-4,9-diazaspiro[5.5]undecan-9-yl)ethyl)phenyl)acetamide hydrochloride]",++
–,"CS(=O)(=O)Nc1cccc(CCN2CCC3(CC2)CN(C(=O)c2ccccc2)CCO3)c1 [Example 114, N-(3-(2-(4-benzoyl-1-oxa-4,9-diazaspiro[5.5]undecan-9-yl)ethyl)phenyl)methanesulfonamide]",++
–,"CN(C)C(=O)N1CCOC2(CCN(CCc3ccccc3)CC2)C1 [Example 117, N,N-dimethyl-9-phenethyl-1-oxa-4,9-diazaspiro[5.5]undecane-4-carboxamide]",++
–,"CN(C(=O)N1CCOC2(CCN(CCc3ccccc3)CC2)C1)c1ccccn1.Cl [Example 119, N-methyl-9-phenethyl-N-(pyridin-2-yl)-1-oxa-4,9-diazaspiro[5.5]undecane-4-carboxamide hydrochloride]",++
> 500,"O=C(Nc1cccnc1)N1CCOC2(CCN(CCc3ccccc3)CC2)C1 [Example 121, 9-phenethyl-N-(pyridin-3-yl)-1-oxa-4,9-diazaspiro[5.5]undecane-4-carboxamide]",–
–,"C[C@@H]1CN(C(=O)c2ccccn2)CC2(CCN(CCc3ccccc3)CC2)O1.Cl [Example 124, (R)-(2-methyl-9-phenethyl-1-oxa-4,9-diazaspiro[5.5]undecan-4-yl)(pyridin-2-yl)methanone hydrochloride]",++
–,"COc1cccnc1CCN1CCC2(CC1)CN(C(=O)c1ccccc1F)CC1(CC1)O2 [Example 130, 12-[(2-fluorophenyl)carbonyl]-8-(2-(3-methoxypyridin-2-yl)ethyl)-4-oxa-8,12-diazadispiro[2.1.5.3]tridecane]",++
–,"N#Cc1ccccc1C(=O)N1CC2(CCN(CCc3ncccc3F)CC2)OC2(CC2)C1 [Example 135, 2-(8-(2-(3-fluoropyridin-2-yl)ethyl)-4-oxa-8,12-diazadispiro[2.1.5.3]tridecane-12-carbonyl)benzonitrile]",++
> 500,"COC(=O)CCN1CCC2(CC1)CN(C(=O)c1c(F)cccc1F)CC1(CC1)O2 [Example 140, methyl 3-(12-(2,6-difluorobenzoyl)-4-oxa-8,12-diazadispiro[2.1.5.3]tridecan-8-yl)propanoate]",–
–,"C[C@@H]1CN(C(=O)c2ccccc2F)CC2(CCN(CCc3ncccc3F)CC2)O1 [Example 143, (R)-(2-fluorophenyl)(9-(2-(3-fluoropyridin-2-yl)ethyl)-2-methyl-1-oxa-4,9-diazaspiro[5.5]undecan-4-yl)methanone]",++
–,"C[C@H]1CN(C(=O)c2ccccc2F)CC2(CCN(CCc3ncccc3F)CC2)O1 [Example 144, (S)-(2-fluorophenyl)(9-(2-(3-fluoropyridin-2-yl)ethyl)-2-methyl-1-oxa-4,9-diazaspiro[5.5]undecan-4-yl)methanone]",++
–,"C[C@@H]1CN(C(=O)c2c(F)cccc2F)CC2(CCN(CCc3ncccc3F)CC2)O1 [Example 145, (R)-(2,6-difluorophenyl)(9-(2-(3-fluoropyridin-2-yl)ethyl)-2-methyl-1-oxa-4,9-diazaspiro[5.5]undecan-4-yl)methanone]",++
–,"C[C@H]1CN(C(=O)c2c(F)cccc2F)CC2(CCN(CCc3ncccc3F)CC2)O1 [Example 146, (S)-(2,6-difluorophenyl)(9-(2-(3-fluoropyridin-2-yl)ethyl)-2-methyl-1-oxa-4,9-diazaspiro[5.5]undecan-4-yl)methanone]",++
> 500,"CC1CN(C(=O)c2cccc(F)c2F)CC2(CCN(CCc3ncccc3F)CC2)O1 (stereo not shown) [Example 147, (2,3-difluorophenyl)(9-(2-(3-fluoropyridin-2-yl)ethyl)-2-methyl-1-oxa-4,9-diazaspiro[5.5]undecan-4-yl)methanone]",–
> 500,"CC1CN(C(=O)c2ccc(F)cc2F)CC2(CCN(CCc3ncccc3F)CC2)O1 (stereo not shown) [Example 148, (2,4-difluorophenyl)(9-(2-(3-fluoropyridin-2-yl)ethyl)-2-methyl-1-oxa-4,9-diazaspiro[5.5]undecan-4-yl)methanone]",–
> 500,"CC1CN(C(=O)c2cccc(F)c2)CC2(CCN(CCc3ncccc3F)CC2)O1 (stereo not shown) [Example 151, (3-fluorophenyl)(9-(2-(3-fluoropyridin-2-yl)ethyl)-2-methyl-1-oxa-4,9-diazaspiro[5.5]undecan-4-yl)methanone]",–
